Data: patent EP3363436A1, “AGENT FOR TREATING PARASITIC WORM DISEASES” (Haas, Helmut, priority 2017, dated 2018)

Test system: S. mansoni
Test: Drug testing on schistosomes in vitro (incubation of cultured worms with the substance, morphological assessment)
Assay type: cell-based
Excerpt: Mirazidien für die Infektion von Wasserschnecken (Biomphalaria glabrata, Stamm Puerto Rico) wurden mittels Standardverfahren aus Gewebe (Leber, Darm) von Syrischen Goldhamstern bzw. Mäusen gewonnen, die mit S. mansoni (Liberian strain bzw. Brasilian strain) infiziert worden waren. Hierzu wurde das Gewebe (freundlicherweise zur Verfügung gestellt von Prof. Dr. Grevelding, Universität Gießen bzw. von Dr. Sombetzki, Universität Rostock) mechanisch zerkleinert und die darin enthaltenen Wurmeier mittels Enzymverdau aus dem Gewebeverband herausgelöst. Nach Zugabe von H2O zu dem Gewebspräzipitat schlüpfen aus den Eiern die Mirazidien. Die Infektion erfolgte separat für jede Schnecke mit 4-7 Mirazidien. Da Licht für die Zerkarien der Schlüsselreiz zum Verlassen der Schnecke ist, wurden die Schnecken in der vierten Woche nach Infektion dunkel gestellt, um ein vorzeitiges Ausschwärmen von Zerkarien zu unterbinden.
6-7 Wochen nach Infektion wurden die infizierten Schnecken aus Beispiel 1 in Wasser mittels einer 60-Watt Glühlampe von oben belichtet, da ab diesem Zeitpunkt Zerkarien die infizierten Schnecken in ausreichender Menge verlassen. Während einer Belichtungsdauer von 2-3 Stunden wurden die aufschwimmenden Zerkarien gesammelt. Nach wiederholtem Waschen und Überführen in Medium erfolgte die Transformation der Zerkarien mechanisch nach Standardverfahren. Dazu erfolgten wiederholte Passagen durch eine Emulsionsnadel, an die zwei Spritzen angeschlossen sind. Die durch die Transformation aus den Zerkarien (Gabelschwanzlarven) entstandenen Schistosomula wurden ebenfalls wiederholt in Medium gewaschen und dabei von den abgescherten Schwänzen getrennt.
Die transformierten Schistosomula wurden nach dem von Basch beschriebenen Verfahren kultiviert (Basch (1981), J Parasitol.; 67: 179-185), wobei das Verfahren leicht modifiziert wurde, wie es bei Reimers beschrieben wurde (Reimers et al. (2015), PLoS Negl Trop Dis 9(3): e0003593). […]

SMILES | Abtöten von Schistosomen (in vitro, Schistosomula, juvenile and adult worms, initially 10 µM (Figures 1-2: 10, 20, 40 µM), 24 h exposure then wash-out, assessed at 4 h, 24 h, 48 h, 72 h and 7 days) | morphologische Veränderungen und Schädigung der Würmer (incubation of parasitic worms with Felodipin in vitro) | Verstärkung der Wirkung von Felodipin (Loperamid given together with Felodipin, in vitro)
CCOC(=O)C1=C(C)NC(C)=C(C(=O)OC)C1c1cccc(Cl)c1Cl (racemic) [Felodipin] | hochwirksam Schistosomen abtöten | erheblichen morphologischen Veränderungen und irreversiblen Schädigung der Würmer | –
CN(C)C(=O)C(CCN1CCC(O)(c2ccc(Cl)cc2)CC1)(c1ccccc1)c1ccccc1 [Loperamid, 4-[4-(4-Chlorphenyl)-4-hydroxypiperidin-1-yl]-N,N-dimethyl-2,2-diphenylbutyramid] | – | – | verstärkt Loperamid die Wirkung von Felodipin signifikant
